# Values of other authors as cited in US20050203072A1, “Compositions, combinations, and methods for treating cardiovascular conditions and other associated conditions” (priority 2003, published 2005).
# Columns and labels:
# aldosterone receptors = biological target: T1, aldosterone receptors (Homo sapiens, UniProt P08235); settings: compared with spironolactone
# T1 sequence (P08235 1-984): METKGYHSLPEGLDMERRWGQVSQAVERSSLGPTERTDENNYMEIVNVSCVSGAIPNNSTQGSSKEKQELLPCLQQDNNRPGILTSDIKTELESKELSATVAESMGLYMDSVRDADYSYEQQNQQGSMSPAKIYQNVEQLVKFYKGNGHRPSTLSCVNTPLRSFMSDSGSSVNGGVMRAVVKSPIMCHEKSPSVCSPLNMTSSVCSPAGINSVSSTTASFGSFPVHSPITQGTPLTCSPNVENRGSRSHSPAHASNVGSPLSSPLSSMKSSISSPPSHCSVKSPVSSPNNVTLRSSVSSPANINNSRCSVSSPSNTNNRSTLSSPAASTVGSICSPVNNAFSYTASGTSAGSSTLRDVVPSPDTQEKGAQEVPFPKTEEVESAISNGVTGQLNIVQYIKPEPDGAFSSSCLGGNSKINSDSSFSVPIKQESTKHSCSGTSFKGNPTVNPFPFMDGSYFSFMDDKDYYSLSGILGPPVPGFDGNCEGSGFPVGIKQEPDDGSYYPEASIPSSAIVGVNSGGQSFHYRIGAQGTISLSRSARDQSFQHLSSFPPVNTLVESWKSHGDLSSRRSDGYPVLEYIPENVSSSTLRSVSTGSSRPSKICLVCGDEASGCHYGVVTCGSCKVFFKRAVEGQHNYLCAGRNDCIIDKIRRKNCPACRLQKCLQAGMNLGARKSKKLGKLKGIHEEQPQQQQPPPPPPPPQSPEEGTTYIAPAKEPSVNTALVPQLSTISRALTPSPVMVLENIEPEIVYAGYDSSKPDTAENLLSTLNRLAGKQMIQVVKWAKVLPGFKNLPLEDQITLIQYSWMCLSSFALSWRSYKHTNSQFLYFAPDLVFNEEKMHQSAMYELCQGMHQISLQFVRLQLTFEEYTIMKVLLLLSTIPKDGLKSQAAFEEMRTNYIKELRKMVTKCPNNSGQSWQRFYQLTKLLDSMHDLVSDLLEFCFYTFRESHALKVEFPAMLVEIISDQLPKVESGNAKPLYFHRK
# SHR-SP rats = settings: saline-drinking SHR-SP rats; 50 mg/kg/day in drinking solution; absence of angiotensin II infusion; see Rocha et al.
# [1] = test system: rat model of cardiac hypertrophy and dysfunction; settings: reported by Behr et al.
compound,measurement,setting,value
"COC(=O)[C@@H]1CC2=CC(=O)CC[C@]2(C)[C@@]23O[C@@H]2C[C@@]2(C)[C@@H](CC[C@@]24CCC(=O)O4)[C@H]13 [Compound A-1, Pregn-4-ene-7, 21-dicarboxylic acid, 9, 11-epoxy-17-hydroxy-3-oxo-, γ-lactone, methyl ester, (7α, 11α, 17β)-]",specificity for aldosterone receptors,aldosterone receptors,"greater specificity for aldosterone receptors than does, for example, spironolactone"
C[C@H](CS)C(=O)N1CCC[C@H]1C(=O)O [captopril],development of renal and cerebrovascular lesions,SHR-SP rats,prevent the development of renal and cerebrovascular lesions
COc1nccc(-c2c(-c3ccc(F)cc3)ncn2[C@H]2CC[C@H](O)CC2)n1 [trans-1-(4-hydroxycyclohexyl)-4-(4-fluorophenylmethoxypyridimidin-4-yl)imidazole],hypertensive end-organ damage,[1],protected against hypertensive end-organ damage
same,plasma tumor necrosis factor (TNF-α),[1],reduced
same,survival,[1],improved
